How the values were obtained:
[1] = test system: rats; details: cited from earlier work
[2] = test system: rats; experiment: Acute toxicity, oral LD50 in rats; format: in vivo; details: relative to reuterin
Description: (§1) Biotechnologically produced 3-HPA and the 3-HPA derivatives, such as the cyclic dimeric form of FIG. 2 and others described herein, have a high potential as a food preservative and within health care. […] See Fernandez-Cruz M. L, Martín-Cabrejas I., Palacio J. P., Gaya P., Díaz-Navarro C., Navas J. M., Medina M., Arques J. L., “In vitro toxicity of reuterin, a potential food biopreservative,” Food and Chemical Toxicology 96, 2016, 155-159. In contrast for acrolein, the median intraperitoneal (i.p.) lethal dose 50 (LD50) was estimated to be 7 mg/kg by weight (bw) for mice. The acute toxicity of diacetyl after i.p. exposure in rats is low (525 mg/kg bw). […] The acute toxicity LD50 oral for propargyl alcohol is 20 mg/kg for rats. See Propargyl alcohol, MSDS, Aldrich-Sigma. Overall, the typical polymerizable corrosion inhibitors, i.e. acrolein and propargyl alcohol are 36 and 12 times respectively more toxic than reuterin.

[3] = test system: mice; details: cited from earlier work
[4] = test system: mice; experiment: Acute toxicity, intraperitoneal LD50 in mice; format: in vivo; details: relative to reuterin
Description: as §1

[5] = test system: rats; details: cited from earlier work; remark: listed apart in the source
[6] = test system: Escherichia coli; details: in meat products, milk and cottage cheese; cited from earlier work
[7] = test system: Listeria monocytogenes; details: in meat products, milk and cottage cheese; cited from earlier work
[8] = cited from earlier work
[9] = Corrosion rate by weight loss analysis of steel coupons in inhibited hydrochloric acid; details: 3.57 mmol, 80° C.
Description: The corrosion rates were studied by weight loss analysis. The low carbon steel HS80 tubing were cut into coupons of 29±3 cm^2 surface area using a water cooled band saw to minimize any changes in the properties of the metal that may result from heating. After cutting, the coupons were stamped for identification, glass bead blasted and cleaned in acetone to remove any residue from the machining process. The coupons were then dried, placed in plastic bags and stored in airtight jars to prevent contact with humidity or airborne contaminants. The initial surface area of each test coupon was determined by accurate (to four decimal places) measurement of its geometric dimensions.
Throughout the exposure period, isothermal conditions are maintained (for the present study, the temperature was maintained at 80° C.) and the inhibited acid is continuously stirred using a magnetic stirrer bar. Since the tests were designed to simulate oil well acid stimulation, no effort was made to remove dissolved oxygen from the acid. However, an argon blanket was used to stop any additional intrusion of oxygen during the one hour exposure period. Following each test, the coupons were rinsed in acetone and scrubbed with soap and water to remove residual inhibitor and corrosion deposits. […]

C#CCO [Propargyl alcohol]
acute toxicity LD50 oral [1]: 20 mg/kg
times more toxic than reuterin [2]: 12 times

C=CC=O [Acrolein]
median intraperitoneal (i.p.) lethal dose 50 (LD50) [3]: 7 mg/kg by weight (bw)
times more toxic than reuterin [4]: 36 times

CC(=O)C(C)=O [diacetyl]
acute toxicity after i.p. exposure [5]: 525 mg/kg bw

O=CCCO [3-HPA, 3-Hydroxypropionaldehyde]
growth inhibition [6]: inhibit the growth
growth inhibition [7]: inhibit the growth
i.p. LD50 ([8]; i.p.): approximately 250 mg/kg bw
toxicity relative to diacetyl ([8]; relative to diacetyl): two times more toxic than diacetyl
inhibition efficiency ([9]; 4M HCl): 89%
inhibition efficiency ([9]; 28% HCl (so in the source)): 97%
